Experimental data: patent publication US11578073B2, “Xanthine analogs as potent anti-West Nile viral agents” (Southern Research Institute, priority 2019, dated 2023)

Key:
West Nile virus = assay: anti-West Nile virus activity of xanthine analogs in HEK293 cells; assay type: cell-based; conditions: HEK293, read-out: EC90 (effective concentration to inhibit 90% of virus)
[1] = cell viability assay (cytotoxicity) in HEK293 cells; assay type: cell-based; conditions: human, read-out: CC50 (50% cytotoxicity concentration)

Compound	EC90 (West Nile virus) [µM]	CC50 [1] [µM]
Cc1ccc(C)c(CN2CCN(c3nc4c(c(=O)[nH]c(=O)n4C)n3Cc3ccccc3F)CC2)c1 [Compound 1, 8-(4-(2,5-dimethylbenzyl)piperazin-1-yl)-7-(2-fluorobenzyl)-3-methyl-3,7-dihydro-1H-purine-2,6-dione]	1.2	12
Cc1ccc(C)c(CN2CCN(c3nc4c(c(=O)n(C)c(=O)n4C)n3Cc3ccccc3F)CC2)c1 [Compound 2, 8-(4-(2,5-dimethylbenzyl)piperazin-1-yl)-7-(2-fluorobenzyl)-1,3-dimethyl-3,7-dihydro-1H-purine-2,6-dione]	1.1	> 40
Cc1ccc(C)c(CN2CCN(c3nc4c([nH]3)c(=O)n(Cc3ccccc3F)c(=O)n4C)CC2)c1 [Compound 3, 8-(4-(2,5-dimethylbenzyl)piperazin-1-yl)-1-(2-fluorobenzyl)-3-methyl-3,7-dihydro-1H-purine-2,6-dione]	> 10	> 40
Cn1c(=O)n(O)c(=O)c2c1nc(N1CCN(Cc3ccc(C(C)(C)C)cc3)CC1)n2Cc1ccccc1F [Compound 4, 8-(4-(4-(tert-butyl)benzyl)piperazin-1-yl)-7-(2-fluorobenzyl)-1-hydroxy-3-methyl-3,7-dihydro-1H-purine-2,6-dione]	> 30	> 40
Cn1c(=O)n(CO)c(=O)c2c1nc(N1CCN(Cc3ccc(C(C)(C)C)cc3)CC1)n2Cc1ccccc1F [Compound 5, 8-(4-(4-(tert-butyl)benzyl)piperazin-1-yl)-7-(2-fluorobenzyl)-1-(hydroxymethyl)-3-methyl-3,7-dihydro-1H-purine-2,6-dione]	1.2	16.8
Cn1c(=O)n(CCO)c(=O)c2c1nc(N1CCN(Cc3ccc(C(C)(C)C)cc3)CC1)n2Cc1ccccc1F [Compound 6, 8-(4-(4-(tert-butyl)benzyl)piperazin-1-yl)-7-(2-fluorobenzyl)-1-(2-hydroxyethyl)-3-methyl-3,7-dihydro-1H-purine-2,6-dione]	6	12
CCn1c(N2CCN(Cc3cc(C)ccc3C)CC2)nc2c1c(=O)[nH]c(=O)n2C [Compound 8, 8-(4-(2,5-Dimethylbenzyl)piperazin-1-yl)-7-ethyl-3-methyl-3,7-dihydro-1H-purine-2,6-dione]	> 10	> 40
Cc1ccc(C)c(CN2CCN(c3nc4c(c(=O)[nH]c(=O)n4C)n3CC3CCCCC3)CC2)c1 [Compound 9, 7-(Cyclohexylmethyl)-8-(4-(2,5-dimethylbenzyl)piperazin-1-yl)-3-methyl-3,7-dihydro-1H-purine-2,6-dione]	4.4	> 40
Cc1ccc(C)c(CN2CCN(c3nc4c(c(=O)[nH]c(=O)n4C)n3Cc3ccccc3C#N)CC2)c1 [Compound 11, 2-((8-(4-(2,5-Dimethylbenzyl)piperazin-1-yl)-3-methyl-2,6-dioxo-1,2,3,6-tetrahydro-7H-purin-7-yl)methyl)benzonitrile]	6.9	> 30
Cc1ccc(C)c(CN2CCN(c3nc4c(c(=O)[nH]c(=O)n4C)n3Cc3ccccc3C(F)(F)F)CC2)c1 [Compound 12, 8-(4-(2,5-Dimethylbenzyl)piperazin-1-yl)-3-methyl-7-(2-(trifluoromethyl)benzyl)-3,7-dihydro-1H-purine-2,6-dione]	1.1	12
Cc1ccc(C)c(CN2CCN(c3nc4c(c(=O)[nH]c(=O)n4C)n3Cc3cccc(F)c3)CC2)c1 [Compound 13, 8-(4-(2,5-Dimethylbenzyl)piperazin-1-yl)-7-(3-fluorobenzyl)-3-methyl-3,7-dihydro-1H-purine-2,6-dione]	5.7	> 30
Cc1ccc(C)c(CN2CCN(c3nc4c(c(=O)[nH]c(=O)n4C)n3Cc3ccc(F)cc3)CC2)c1 [Compound 14, 8-(4-(2,5-Dimethylbenzyl)piperazin-1-yl)-7-(4-fluorobenzyl)-3-methyl-3,7-dihydro-1H-purine-2,6-dione]	6.1	> 30
Cc1ccc(C)c(CN2CCN(c3nc4c(c(=O)[nH]c(=O)n4C)n3Cc3ccc(F)cc3F)CC2)c1 [Compound 15, 7-(2,4-Difluorobenzyl)-8-(4-(2,5-dimethylbenzyl)piperazin-1-yl)-3-methyl-3,7-dihydro-1H-purine-2,6-dione]	> 10	> 40
Cn1c(=O)[nH]c(=O)c2c1nc(N1CCN(Cc3ccc(C(C)(C)C)cc3)CC1)n2Cc1ccccc1C(F)(F)F [Compound 16, 8-(4-(4-(tert-Butyl)benzyl)piperazin-1-yl)-3-methyl-7-(2-(trifluoromethyl)benzyl)-3,7-dihydro-1H-purine-2,6-dione]	1.2	12.4
Cn1c(=O)[nH]c(=O)c2c1nc(N1CCN(Cc3ccc(C(C)(C)C)cc3)CC1)n2Cc1ccccc1OC(F)(F)F [Compound 17, 8-(4-(4-(tert-Butyl)benzyl)piperazin-1-yl)-3-methyl-7-(2-(trifluoromethoxy)benzyl)-3,7-dihydro-1H-purine-2,6-dione]	1.2	10.2
COC(=O)c1ccc(Cn2c(N3CCN(Cc4ccc(C(C)(C)C)cc4)CC3)nc3c2c(=O)[nH]c(=O)n3C)c(F)c1 [Compound 18, methyl 4-((8-(4-(4-(tert-butyl)benzyl)piperazin-1-yl)-3-methyl-2,6-dioxo-1,2,3,6-tetrahydro-7H-purin-7-yl)methyl)-3-fluorobenzoate]	5.2	21.4
Cn1c(=O)[nH]c(=O)c2c1nc(N1CCN(Cc3ccc(C(C)(C)C)cc3)CC1)n2Cc1ccc(C(=O)O)cc1F [Compound 19, 4-((8-(4-(4-(tert-butyl)benzyl)piperazin-1-yl)-3-methyl-2,6-dioxo-1,2,3,6-tetrahydro-7H-purin-7-yl)methyl)-3-fluorobenzoic Acid]	> 10	> 40
Cn1c(=O)[nH]c(=O)c2c1nc(N1CCN(Cc3ccc(C(C)(C)C)cc3)CC1)n2Cc1ccncc1F [Compound 20, 8-(4-(4-(tert-Butyl)benzyl)piperazin-1-yl)-7-((3-fluoropyridin-4-yl)methyl)-3-methyl-3,7-dihydro-1H-purine-2,6-dione]	2.6	22.1
Cn1c(=O)[nH]c(=O)c2c1nc(N1CCOCC1)n2Cc1ccccc1F [Compound 22, 7-(2-Fluorobenzyl)-3-methyl-8-morpholino-3,7-dihydro-1H-purine-2,6-dione]	> 10	> 40
Cc1ccc(C)c(N2CCN(c3nc4c(c(=O)[nH]c(=O)n4C)n3Cc3ccccc3F)CC2)c1 [Compound 26, 8-(4-(2,5-Dimethylphenyl)piperazin-1-yl)-7-(2-fluorobenzyl)-3-methyl-3,7-dihydro-1H-purine-2,6-dione]	4.5	2.8
Cc1cc(C)cc(N2CCN(c3nc4c(c(=O)[nH]c(=O)n4C)n3Cc3ccccc3F)CC2)c1 [Compound 27, 8-(4-(3,5-Dimethylphenyl)piperazin-1-yl)-7-(2-fluorobenzyl)-3-methyl-3,7-dihydro-1H-purine-2,6-dione]	10	> 30
Cn1c(=O)[nH]c(=O)c2c1nc(N1CCN(c3cccc(C(C)(C)C)c3)CC1)n2Cc1ccccc1F [Compound 28, 8-(4-(3-(tert-butyl)phenyl)piperazin-1-yl)-7-(2-fluorobenzyl)-3-methyl-3,7-dihydro-1H-purine-2,6-dione]	10	> 40
Cn1c(=O)[nH]c(=O)c2c1nc(N1CCN(c3ccc(C(F)(F)F)cc3)CC1)n2Cc1ccccc1F [Compound 30, 7-(2-Fluorobenzyl)-3-methyl-8-(4-(4-(trifluoromethyl)phenyl)piperazin-1-yl)-3,7-dihydro-1H-purine-2,6-dione]	6.5	12.9
Cn1c(=O)[nH]c(=O)c2c1nc(N1CCN(Cc3ccc(C(F)(F)F)cc3)CC1)n2Cc1ccccc1F [Compound 34, 7-(2-Fluorobenzyl)-3-methyl-8-(4-(4-(trifluoromethyl)benzyl)piperazin-1-yl)-3,7-dihydro-1H-purine-2,6-dione]	9.4	> 30
Cn1c(=O)[nH]c(=O)c2c1nc(N1CCN(Cc3ccc(F)cc3)CC1)n2Cc1ccccc1F [Compound 35, 7-(2-Fluorobenzyl)-8-(4-(4-fluorobenzyl)piperazin-1-yl)-3-methyl-3,7-dihydro-1H-purine-2,6-dione]	10.5	> 30
Cn1c(=O)[nH]c(=O)c2c1nc(N1CCN(Cc3ccc(C(C)(C)C)cc3)CC1)n2Cc1ccccc1F [Compound 36, 8-(4-(4-(tert-butyl)benzyl)piperazin-1-yl)-7-(2-fluorobenzyl)-3-methyl-3,7-dihydro-1H-purine-2,6-dione]	0.87	> 30
Cn1c(=O)[nH]c(=O)c2c1nc(N1CCN(Cc3ccc(C(C)(C)C)cc3)C(C(=O)O)C1)n2Cc1ccccc1F (stereo not drawn) [Compound 37, 1-(4-(tert-butyl)benzyl)-4-(7-(2-fluorobenzyl)-3-methyl-2,6-dioxo-2,3,6,7-tetrahydro-1H-purin-8-yl)piperazine-2-carboxylic Acid]	> 10	> 40
Cn1c(=O)[nH]c(=O)c2c1nc(N1CCN(Cc3ccc(C(C)(C)C)nc3)CC1)n2Cc1ccccc1F [Compound 38, 8-(4-((6-(tert-Butyl)pyridin-3-yl)methyl)piperazin-1-yl)-7-(2-fluorobenzyl)-3-methyl-3,7-dihydro-1H-purine-2,6-dione]	16	34.2
Cn1c(=O)[nH]c(=O)c2c1nc(N1CCN(Cc3ccc(C(C)(C)C#N)cc3)CC1)n2Cc1ccccc1F [Compound 39, 2-(4-((4-(7-(2-Fluorobenzyl)-3-methyl-2,6-dioxo-2,3,6,7-tetrahydro-1H-purin-8-yl)piperazin-1-yl)methyl)phenyl)-2-methylpropanenitrile]	> 30	> 40
Cn1c(=O)[nH]c(=O)c2c1nc(N1CCN(Cc3ccc(C(C)(C)O)cc3)CC1)n2Cc1ccccc1F [Compound 40, 7-(2-fluorobenzyl)-8-(4-(4-(2-hydroxypropan-2-yl)benzyl)piperazin-1-yl)-3-methyl-3,7-dihydro-1H-purine-2,6-dione]	> 10	> 40
